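All cell lines were grown in 96-well plates and treated with compound for 48 hours. Here, GI50 denotes the concentration required for 50% inhibition of growth.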 Activity calls are given as the source filed them. Cut-off read from the data, not from the text of the source: active = GI50 up to about 1.1 µM and inactive = higher.
How the values were obtained:
Test in all cases: NCI tumour cell line growth inhibition, 48 h
786-0 = system: 786-0
BT-549 = system: BT-549
CCRF-CEM = system: CCRF-CEM
DU-145 = system: DU-145
EKVX = system: EKVX
HCT-15 = system: HCT-15
HL-60 = system: HL-60
HOP-62 = system: HOP-62
HOP-92 = system: HOP-92
MDA-MB-231 = system: MDA-MB-231
MDA-N = system: MDA-N
Malme-3M = system: Malme-3M
NCI/ADR-RES = system: NCI/ADR-RES
OVCAR-3 = system: OVCAR-3
OVCAR-8 = system: OVCAR-8
RPMI-8226 = system: RPMI-8226
SF-295 = system: SF-295
SK-MEL-2 = system: SK-MEL-2
SNB-75 = system: SNB-75
T47D = system: T47D

CCOC(=O)c1nc2cc(Cl)ccc2[nH]c1=O
GI50 (786-0): > 100 µM (inactive) | GI50 (BT-549): > 100 µM (inactive) | GI50 (CCRF-CEM): > 100 µM (inactive) | GI50 (DU-145): > 100 µM (inactive) | GI50 (EKVX): > 100 µM (inactive) | GI50 (HCT-15): > 100 µM | GI50 (HL-60): > 100 µM (inactive) | GI50 (HOP-62): > 100 µM (inactive) | GI50 (HOP-92): > 100 µM (inactive) | GI50 (MDA-MB-231): > 100 µM (inactive) | GI50 (MDA-N): > 100 µM (inactive) | GI50 (Malme-3M): > 100 µM (inactive) | GI50 (NCI/ADR-RES): > 100 µM (inactive) | GI50 (OVCAR-3): > 100 µM (inactive) | GI50 (OVCAR-8): > 100 µM (inactive) | GI50 (RPMI-8226): > 100 µM (inactive) | GI50 (SF-295): > 100 µM (inactive) | GI50 (SK-MEL-2): > 100 µM (inactive) | GI50 (SNB-75): < 0.01 µM (active) | GI50 (T47D): > 100 µM (inactive)

O=CC1OC(=O)c2cc(O)c(O)c(O)c2-c2c(cc(O)c(O)c2O)C(=O)OC1C1OC(=O)c2cc(O)c(O)c(O)c2-c2c(O)c(O)c3oc(=O)c4c(c(O)c(O)c5oc(=O)c2c3c54)-c2c(cc(O)c(O)c2O)C(=O)OCC1O (stereo not given)
GI50 (786-0): 18.7 µM (inactive) | GI50 (BT-549): > 100 µM (inactive) | GI50 (CCRF-CEM): 24.3 µM (inactive) | GI50 (DU-145): 50.6 µM (inactive) | GI50 (EKVX): 16.9 µM (inactive) | GI50 (HCT-15): 15.7 µM | GI50 (HL-60): 20.9 µM (inactive) | GI50 (HOP-62): 44.3 µM (inactive) | GI50 (HOP-92): 16.6 µM (inactive) | GI50 (MDA-MB-231): 13.9 µM (inactive) | GI50 (MDA-N): 20.4 µM (inactive) | GI50 (Malme-3M): 94.4 µM (inactive) | GI50 (NCI/ADR-RES): 36.8 µM (inactive) | GI50 (OVCAR-3): 39.7 µM (inactive) | GI50 (OVCAR-8): 19.3 µM (inactive) | GI50 (RPMI-8226): 57.8 µM (inactive) | GI50 (SF-295): 18.7 µM (inactive) | GI50 (SK-MEL-2): > 100 µM (inactive) | GI50 (SNB-75): 13.9 µM (inactive) | GI50 (T47D): 43.1 µM (inactive)

CC(C(=O)n1ccnc1)N1c2ccccc2Sc2ccccc21 (stereo not given)
GI50 (786-0): 59.2 µM (inactive) | GI50 (BT-549): > 100 µM (inactive) | GI50 (CCRF-CEM): 84.7 µM (inactive) | GI50 (DU-145): > 100 µM (inactive) | GI50 (EKVX): 88.3 µM (inactive) | GI50 (HCT-15): 97.5 µM | GI50 (HL-60): 91.8 µM (inactive) | GI50 (HOP-62): 67.5 µM (inactive) | GI50 (HOP-92): 25.1 µM (inactive) | GI50 (MDA-MB-231): 78.3 µM (inactive) | GI50 (MDA-N): > 100 µM (inactive) | GI50 (Malme-3M): 83.6 µM (inactive) | GI50 (NCI/ADR-RES): 63.2 µM (inactive) | GI50 (OVCAR-3): 38.5 µM (inactive) | GI50 (OVCAR-8): > 100 µM (inactive) | GI50 (RPMI-8226): 65.3 µM (inactive) | GI50 (SF-295): > 100 µM (inactive) | GI50 (SK-MEL-2): > 100 µM (inactive) | GI50 (SNB-75): 40.6 µM (inactive) | GI50 (T47D): 39.5 µM (inactive)

CC(NNC(=O)c1cc[n+]([BH2-]C#N)cc1)c1ccc(Cl)c(Cl)c1 (stereo not given)
GI50 (786-0): 47.5 µM (inactive) | GI50 (BT-549): 27.9 µM (inactive) | GI50 (CCRF-CEM): 37.1 µM (inactive) | GI50 (DU-145): 37.8 µM (inactive) | GI50 (EKVX): 30.1 µM (inactive) | GI50 (HCT-15): 31.6 µM | GI50 (HL-60): 25.8 µM (inactive) | GI50 (HOP-62): 45 µM (inactive) | GI50 (HOP-92): 20.6 µM (inactive) | GI50 (MDA-MB-231): 24.8 µM (inactive) | GI50 (MDA-N): 35.2 µM (inactive) | GI50 (Malme-3M): 30.9 µM (inactive) | GI50 (NCI/ADR-RES): 30.5 µM (inactive) | GI50 (OVCAR-3): 26.9 µM (inactive) | GI50 (OVCAR-8): 42.8 µM (inactive) | GI50 (RPMI-8226): 33.5 µM (inactive) | GI50 (SF-295): 29.6 µM (inactive) | GI50 (SK-MEL-2): 32.2 µM (inactive) | GI50 (SNB-75): 34.8 µM (inactive) | GI50 (T47D): 23.3 µM (inactive)

Oc1cccc2c1[nH]c1c(C3=C[C@@]4(O)CC/C=C\CCCCN5CC[C@@H]3[C@]3(CC6/C=C\CCCCN6[C@H]34)C5)nccc12 (stereo not given in full)
GI50 (786-0): 0.659 µM (active) | GI50 (BT-549): 1.81 µM (inactive) | GI50 (CCRF-CEM): 0.973 µM (active) | GI50 (DU-145): 1.15 µM (inactive) | GI50 (EKVX): 1.23 µM (inactive) | GI50 (HCT-15): 0.718 µM | GI50 (HL-60): 0.667 µM (active) | GI50 (HOP-62): 0.764 µM (active) | GI50 (HOP-92): 0.226 µM (active) | GI50 (MDA-MB-231): 1.19 µM (inactive) | GI50 (MDA-N): 0.771 µM (active) | GI50 (Malme-3M): 1.6 µM (inactive) | GI50 (NCI/ADR-RES): 2.17 µM (inactive) | GI50 (OVCAR-3): 0.893 µM (active) | GI50 (OVCAR-8): 1.15 µM (inactive) | GI50 (RPMI-8226): 0.61 µM (active) | GI50 (SF-295): 1.75 µM (inactive) | GI50 (SK-MEL-2): 1.47 µM (inactive) | GI50 (SNB-75): 0.946 µM (active) | GI50 (T47D): 0.804 µM (active)

O=C1O[C@H]2[C@H](O)[C@@H](OC(=O)c3cc(O)c(O)c4c3[C@@H]3C1=CC(=O)C(O)(O)C3(O)O4)[C@H](OC(=O)c1cc(O)c(O)c(O)c1)O[C@@H]2CO (stereo not given in full) [FUROSIN]
GI50 (786-0): > 100 µM (inactive) | GI50 (BT-549): > 100 µM (inactive) | GI50 (CCRF-CEM): 17.9 µM (inactive) | GI50 (DU-145): > 100 µM (inactive) | GI50 (EKVX): > 100 µM (inactive) | GI50 (HCT-15): 36.4 µM | GI50 (HL-60): 28.2 µM (inactive) | GI50 (HOP-62): > 100 µM (inactive) | GI50 (HOP-92): 42 µM (inactive) | GI50 (MDA-MB-231): > 100 µM (inactive) | GI50 (MDA-N): 33.6 µM (inactive) | GI50 (Malme-3M): > 100 µM (inactive) | GI50 (NCI/ADR-RES): > 100 µM (inactive) | GI50 (OVCAR-3): 33.2 µM (inactive) | GI50 (OVCAR-8): 79.1 µM (inactive) | GI50 (RPMI-8226): > 100 µM (inactive) | GI50 (SF-295): 71.6 µM (inactive) | GI50 (SK-MEL-2): > 100 µM (inactive) | GI50 (SNB-75): 78.9 µM (inactive) | GI50 (T47D): > 100 µM (inactive)

Reference: ChEMBL document CHEMBL1201862, “PubChem BioAssay data set” (2004)
